From patent US20240115654A1, “INTRAVENOUS ADMINISTRATION OF ENGINEERED ANTIMICROBIAL AMPHIPHILIC PEPTIDES” (priority 2021, published 2024)
Peptide text beside a SMILES is read from it.

Settings: Cohort 4: 0.5 mg/kg IV 2-hr infusion (N = 6)
Excerpt: All subjects who met eligibility criteria were confined to the clinical research unit from […] through Day 3. At admission, physical examination, vital signs, 12 lead ECG and weight were obtained, medical and medication history were updated if necessary, safety blood tests (hematology and chemistry), urinalysis, urine drug screen and an alcohol breath test were repeated and a urine pregnancy test was done for women of childbearing potential.
At each dose level, there were 2 sentinel subjects, (1 active, 1 placebo), who were dosed at least 48 hours in advance of the other subjects in their respective group. Following review of safety data, including physical examination, vital signs, and review of adverse events from the first 2 subjects, enrolment in the cohort continued.
A 12-lead ECG was performed on Day 1, within 60 minutes of infusion start (in triplicate), mid-way through the infusion, at the completion of the infusion, 30 minutes after completion of the infusion and at various timepoints following the end of the infusion.
Vital signs were recorded within 60 minutes pre-dose, at the mid-point of the infusion and post dose vitals were assessed at completion of the infusion, 0.5, 1, 2, 3, 4, 6, 9, 12, 24 and 48 hours post dose, after at least 3 minutes of rest in supine position.
Subjects returned to the study center 7 days after dosing, for the termination visit. A full physical examination, vital signs and weight were obtained, concomitant medications were updated if necessary, safety blood specimens (haematology and chemistry, PT and aPTT) and urine were collected for urinalysis and urine drug screening. A serum pregnancy test was done for women of childbearing potential and a 12-lead ECG was performed.
In this study dose limiting toxicity (DLT) was defined as any drug related ≥Grade 3 AEs occurring despite optimal therapeutic interventions (which included but were not limited to allergic/hypersensitivity reactions, dermatological reactions/infusion site reactions, haematological toxicities such as neutropenia, thrombocytopenia and anaemia and clinical chemistry abnormalities) experienced up to Day 7 (Termination Visit).
(§1) All subjects who received any amount of study drug were included in the safety analysis (Safety population).
The study was a double blinded, randomized, placebo-controlled study. The placebo administered was 0.9% sodium chloride.
On Day 1 (day of dosing), subjects were randomly assigned either peptide IV or Placebo IV. At each dose level, there were 2 sentinel subjects, (1 active, 1 placebo), who were dosed at least 48 hours in advance of the other subjects in their respective group. Following review of safety data, including physical examination, vital signs, and review of adverse events from the first 2 subjects, enrolment in the cohort continued. All subjects who met eligibility criteria were confined to the clinical research unit from Day −2 through Day 3. At admission, physical examination, vital signs, 12 lead ECG and weight were obtained, medical and medication history were updated if necessary, safety blood tests (hematology and chemistry), urinalysis, urine drug screen and an alcohol breath test were repeated and a urine pregnancy test was done for women of childbearing potential.
as §1

## CC(C)[C@H](NC(=O)[C@H](Cc1c[nH]c2ccccc12)NC(=O)[C@H](CCCNC(=N)N)NC(=O)[C@H](CCCNC(=N)N)NC(=O)[C@@H](NC(=O)[C@@H](NC(=O)[C@H](CCCNC(=N)N)NC(=O)[C@@H](NC(=O)[C@@H](NC(=O)[C@H](CCCNC(=N)N)NC(=O)[C@H](CCCNC(=N)N)NC(=O)[C@H](Cc1c[nH]c2ccccc12)NC(=O)[C@@H](NC(=O)[C@H](CCCNC(=N)N)NC(=O)[C@H](CCCNC(=N)N)NC(=O)[C@@H](NC(=O)[C@H](CCCNC(=N)N)NC(=O)[C@H](CCCNC(=N)N)NC(=O)[C@@H](NC(=O)[C@H](Cc1c[nH]c2ccccc12)NC(=O)[C@H](CCCNC(=N)N)NC(=O)[C@@H](N)CCCNC(=N)N)C(C)C)C(C)C)C(C)C)C(C)C)C(C)C)C(C)C)C(C)C)C(=O)N[C@@H](CCCNC(=N)N)C(=O)N[C@@H](CCCNC(=N)N)C(N)=O [SEQ ID NO: 1] (H-RRWVRRVRRVWRRVVRVVRRWVRR-NH2)
  Number of Participants Reporting at least: One Dose-Limiting Toxicity, n (%): 0
  Number of Participants Reporting at least: One Related TEAE, n (%): 3 (50.0%)
  Number of Participants Reporting at least: One Serious TEAE, n (%): 0
  Number of Participants Reporting at least: One TEAE Leading to Study Drug Discontinuation, n (%): 0
  Number of Participants Reporting at least: One TEAE with Common Terminology Criteria for Adverse Events (CTCAE) Toxicity ≥ Grade 3, n (%): 0
  Number of Participants Reporting at least: One TEAE, n (%): 6 (100%)
  One Related TEAE, m: 4
  One TEAE, m: 15
  Participants With At Least 1 TEAE, n (%): 6 (100%)
  Participants With At Least 1 TEAE, occurrences m: 15
  Participants With At Least 1 Treatment-Related TEAE, n (%): 3 (50.0%)
  Participants With At Least 1 Treatment-Related TEAE, occurrences m: 4
  TEAE Severity Grade 1, m: 12
  TEAE Severity Grade 1, n (%): 6 (100%)
  TEAE Severity Grade 2, m: 3
  TEAE Severity Grade 2, n (%): 2 (33.3%)
  TEAE by system organ class: Blood and Lymphatic System Disorders, participants n (%): 0
  TEAE by system organ class: Gastrointestinal Disorders, occurrences m: 2
  TEAE by system organ class: Gastrointestinal Disorders, participants n (%): 1 (16.7%)
  TEAE by system organ class: General Disorders and Administration Site Conditions, occurrences m: 2
  TEAE by system organ class: General Disorders and Administration Site Conditions, participants n (%): 2 (33.3%)
  TEAE by system organ class: Infections and Infestations, occurrences m: 1
  TEAE by system organ class: Infections and Infestations, participants n (%): 1 (16.7%)
  TEAE by system organ class: Injury, Poisoning, and Procedural Complications, occurrences m: 4
  TEAE by system organ class: Injury, Poisoning, and Procedural Complications, participants n (%): 3 (50.0%)
  TEAE by system organ class: Musculoskeletal and Connective Tissue Disorders, occurrences m: 2
  TEAE by system organ class: Musculoskeletal and Connective Tissue Disorders, participants n (%): 2 (33.3%)
  TEAE by system organ class: Nervous System Disorders, occurrences m: 1
  TEAE by system organ class: Nervous System Disorders, participants n (%): 1 (16.7%)
  TEAE by system organ class: Respiratory, Thoracic, and Mediastinal disorders, participants n (%): 0
  TEAE by system organ class: Skin and Subcutaneous Tissue Disorders, occurrences m: 3
  TEAE by system organ class: Skin and Subcutaneous Tissue Disorders, participants n (%): 2 (33.3%)
  TEAE by system organ class: Vascular Disorders, participants n (%): 0
  TEAE severity Grade 1, occurrences m: 12
  TEAE severity Grade 1, participants n (%): 6 (100%)
  TEAE severity Grade 2, occurrences m: 3
  TEAE severity Grade 2, participants n (%): 2 (33.3%)
  TEAE severity Grade 3, participants n (%): 0
  TEAE severity Grade 4, participants n (%): 0
  TEAE severity Grade 5, participants n (%): 0
  Treatment-related TEAE: Abdominal distension, occurrences m: 1
  Treatment-related TEAE: Abdominal distension, participants n (%): 1 (16.7%)
  Treatment-related TEAE: Blood and Lymphatic System Disorders, participants n (%): 0
  Treatment-related TEAE: Constipation, participants n (%): 0
  Treatment-related TEAE: Diarrhea, occurrences m: 1
  Treatment-related TEAE: Diarrhea, participants n (%): 1 (16.7%)
  Treatment-related TEAE: Dizziness, participants n (%): 0
  Treatment-related TEAE: Feeling hot, participants n (%): 0
  Treatment-related TEAE: Gastrointestinal Disorders, occurrences m: 2
  Treatment-related TEAE: Gastrointestinal Disorders, participants n (%): 1 (16.7%)
  Treatment-related TEAE: General Disorders and Administration Site Conditions, occurrences m: 2
  Treatment-related TEAE: General Disorders and Administration Site Conditions, participants n (%): 2 (33.3%)
  Treatment-related TEAE: Headache, participants n (%): 0
  Treatment-related TEAE: Infusion related reaction, participants n (%): 0
  Treatment-related TEAE: Infusion site discomfort, participants n (%): 0
  Treatment-related TEAE: Infusion site pain, participants n (%): 0
  Treatment-related TEAE: Infusion site reaction, occurrences m: 1
  Treatment-related TEAE: Infusion site reaction, participants n (%): 1 (16.7%)
  Treatment-related TEAE: Infusion site swelling, participants n (%): 0
  Treatment-related TEAE: Injury, Poisoning, and Procedural Complications, participants n (%): 0
  Treatment-related TEAE: Macule, participants n (%): 0
  Treatment-related TEAE: Musculoskeletal and Connective Tissue Disorders, participants n (%): 0
  Treatment-related TEAE: Myalgia, participants n (%): 0
  Treatment-related TEAE: Nervous system disorders, participants n (%): 0
  Treatment-related TEAE: Oropharyngeal pain, participants n (%): 0
  Treatment-related TEAE: Orthostatic hypotension, participants n (%): 0
  Treatment-related TEAE: Phlebitis, participants n (%): 0
  Treatment-related TEAE: Respiratory, Thoracic, and Mediastinal disorders, participants n (%): 0
